Results from ChEMBL document CHEMBL2440076, “New triarylpyrazoles as broad-spectrum anticancer agents: design, synthesis, and biological evaluation” (Eur J Med Chem, 2013).

How the values were obtained:
Type in all cases: functional
SF-295 = test: Growth inhibition of human SF295 cells assessed as cell growth at 5X10'-5 M after 48 hrs by sulforhodamine B assay; conditions: SF-295, 48 h, read-out: Activity
NCI-H522 = test: Growth inhibition of human NCI-H522 cells assessed as cell growth at 5X10'-7 M after 48 hrs by sulforhodamine B assay; conditions: NCI-H522, 48 h, read-out: Activity
MOLT-4 = test: Growth inhibition of human MOLT4 cells assessed as cell growth at 5X10'-5 M after 48 hrs by sulforhodamine B assay; conditions: MOLT-4, 48 h, read-out: Activity
MDA-MB-231 [1] = test: Growth inhibition of human MDA-MB-231 cells assessed as cell growth at 5X10'-5 M after 48 hrs by sulforhodamine B assay; conditions: MDA-MB-231, 48 h, read-out: Activity
SF-539 = test: Growth inhibition of human SF539 cells assessed as cell growth at 5X10'-9 M after 48 hrs by sulforhodamine B assay; conditions: SF-539, 48 h, read-out: Activity
Malme-3M [2] = test: Growth inhibition of human MALME-3M cells assessed as cell growth at 5X10'-8 M after 48 hrs by sulforhodamine B assay; conditions: read-out: Activity
OVCAR-3 [3] = test: Growth inhibition of human OVCAR3 cells assessed as cell growth at 5X10'-8 M after 48 hrs by sulforhodamine B assay; conditions: OVCAR-3, 48 h, read-out: Activity
BT-549 [4] = test: Growth inhibition of human BT549 cells assessed as cell growth at 5X10'-8 M after 48 hrs by sulforhodamine B assay; conditions: BT-549, 48 h, read-out: Activity
OVCAR-3 [5] = test: Growth inhibition of human OVCAR3 cells assessed as cell growth at 5X10'-6 M after 48 hrs by sulforhodamine B assay; conditions: OVCAR-3, 48 h, read-out: Activity
K562 [6] = test: Growth inhibition of human K562 cells assessed as cell growth at 5X10'-5 M after 48 hrs by sulforhodamine B assay; conditions: K562, 48 h, read-out: Activity
M14 = test: Growth inhibition of human M14 cells assessed as cell growth at 5X10'-8 M after 48 hrs by sulforhodamine B assay; conditions: M14, 48 h, read-out: Activity
LOX IMVI [7] = test: Growth inhibition of human LOXIMVI cells assessed as cell growth at 5X10'-6 M after 48 hrs by sulforhodamine B assay; conditions: read-out: Activity
RPMI-8226 = test: Growth inhibition of human RPMI8226 cells assessed as cell growth at 5X10'-6 M after 48 hrs by sulforhodamine B assay; conditions: RPMI-8226, 48 h, read-out: Activity
MDA-MB-231 [8] = test: Growth inhibition of human MDA-MB-231 cells assessed as cell growth at 5X10'-9 M after 48 hrs by sulforhodamine B assay; conditions: MDA-MB-231, 48 h, read-out: Activity
OVCAR-8 [9] = test: Growth inhibition of human OVCAR8 cells assessed as cell growth at 5X10'-9 M after 48 hrs by sulforhodamine B assay; conditions: OVCAR-8, 48 h, read-out: Activity
SK-OV-3 = test: Growth inhibition of human SKOV3 cells assessed as cell growth at 5X10'-5 M after 48 hrs by sulforhodamine B assay; conditions: SK-OV-3, 48 h, read-out: Activity
SN12C = test: Growth inhibition of human SN12C cells assessed as cell growth at 5X10'-9 M after 48 hrs by sulforhodamine B assay; conditions: read-out: Activity
Malme-3M [10] = test: Growth inhibition of human MALME-3M cells assessed as cell growth at 5X10'-9 M after 48 hrs by sulforhodamine B assay; conditions: read-out: Activity
OVCAR-8 [11] = test: Growth inhibition of human OVCAR8 cells assessed as cell growth at 5X10'-6 M after 48 hrs by sulforhodamine B assay; conditions: OVCAR-8, 48 h, read-out: Activity
K562 [12] = test: Growth inhibition of human K562 cells assessed as cell growth at 5X10'-9 M after 48 hrs by sulforhodamine B assay; conditions: K562, 48 h, read-out: Activity
Malme-3M [13] = test: Growth inhibition of human MALME-3M cells assessed as cell growth at 5X10'-6 M after 48 hrs by sulforhodamine B assay; conditions: read-out: Activity
SK-MEL-28 = test: Growth inhibition of human SK-MEL-28 cells assessed as cell growth at 5X10'-7 M after 48 hrs by sulforhodamine B assay; conditions: SK-MEL-28, 48 h, read-out: Activity
NCI-H226 = test: Growth inhibition of human NCI-H226 cells assessed as cell growth at 5X10'-8 M after 48 hrs by sulforhodamine B assay; conditions: NCI-H226, 48 h, read-out: Activity
[14] = Growth inhibition of human NCI-ADR-RES cells assessed as cell growth at 5X10'-7 M after 48 hrs by sulforhodamine B assay; conditions: read-out: Activity
NCI-H460 = test: Growth inhibition of human NCI-H460 cells assessed as cell growth at 5X10'-7 M after 48 hrs by sulforhodamine B assay; conditions: NCI-H460, 48 h, read-out: Activity
RXF 393 = test: Growth inhibition of human RXF393 cells assessed as cell growth at 5X10'-7 M after 48 hrs by sulforhodamine B assay; conditions: RXF 393, 48 h, read-out: Activity
OVCAR-8 [15] = test: Growth inhibition of human OVCAR8 cells assessed as cell growth at 5X10'-8 M after 48 hrs by sulforhodamine B assay; conditions: OVCAR-8, 48 h, read-out: Activity
SK-MEL-2 [16] = test: Growth inhibition of human SK-MEL-2 cells assessed as cell growth at 5X10'-8 M after 48 hrs by sulforhodamine B assay; conditions: SK-MEL-2, 48 h, read-out: Activity
T47D = test: Growth inhibition of human T47D cells assessed as cell growth at 5X10'-8 M after 48 hrs by sulforhodamine B assay; conditions: read-out: Activity
TK-10 = test: Growth inhibition of human TK10 cells assessed as cell growth at 5X10'-5 M after 48 hrs by sulforhodamine B assay; conditions: TK-10, 48 h, read-out: Activity
HT-29 = test: Growth inhibition of human HT-29 cells assessed as cell growth at 5X10'-7 M after 48 hrs by sulforhodamine B assay; conditions: HT-29, 48 h, read-out: Activity
U-251 = test: Growth inhibition of human U251 cells assessed as cell growth at 5X10'-8 M after 48 hrs by sulforhodamine B assay; conditions: U-251, 48 h, read-out: Activity
SK-MEL-2 [17] = test: Growth inhibition of human SK-MEL-2 cells assessed as cell growth at 5X10'-6 M after 48 hrs by sulforhodamine B assay; conditions: SK-MEL-2, 48 h, read-out: Activity
LOX IMVI [18] = test: Growth inhibition of human LOXIMVI cells assessed as cell growth at 5X10'-5 M after 48 hrs by sulforhodamine B assay; conditions: read-out: Activity
ACHN = test: Growth inhibition of human ACHN cells assessed as cell growth at 5X10'-5 M after 48 hrs by sulforhodamine B assay; conditions: read-out: Activity
BT-549 [19] = test: Growth inhibition of human BT549 cells assessed as cell growth at 5X10'-9 M after 48 hrs by sulforhodamine B assay; conditions: BT-549, 48 h, read-out: Activity
[20] = Growth inhibition of human HCC2998 cells assessed as cell growth at 5X10'-5 M after 48 hrs by sulforhodamine B assay; conditions: HCC 2998, 48 h, read-out: Activity

For `COc1cc(-c2nn(-c3cccc(NC(=O)c4cccc(C(F)(F)F)c4)c3)cc2-c2ccncc2)ccc1Cl`, the growth at 50 µM (SF-295) was -26%, the growth at 0.5 µM (NCI-H522) was 79% and the growth at 50 µM (MOLT-4) was 16%. It also gave a growth at 50 µM (MDA-MB-231 [1]) of -21%, a growth at 0.005 µM (SF-539) of 95% and a growth at 0.05 µM (Malme-3M [2]) of 82%. It also gave a growth at 0.05 µM (OVCAR-3 [3]) of 101%, a growth at 0.05 µM (BT-549 [4]) of 98% and a growth at 5 µM (OVCAR-3 [5]) of -28%. It also gave a growth at 50 µM (K562 [6]) of 7%, a growth at 0.05 µM (M14) of 94% and a growth at 5 µM (LOX IMVI [7]) of 8%. It also gave a growth at 5 µM (RPMI-8226) of 12%, a growth at 0.005 µM (MDA-MB-231 [8]) of 102% and a growth at 0.005 µM (OVCAR-8 [9]) of 97%. It also gave a growth at 50 µM (SK-OV-3) of 17%, a growth at 0.005 µM (SN12C) of 97% and a growth at 0.005 µM (Malme-3M [10]) of 95%. For the same compound, the growth at 5 µM (OVCAR-8 [11]) was 23%, the growth at 0.005 µM (K562 [12]) was 94% and the growth at 5 µM (Malme-3M [13]) was 21%. It also gave a growth at 0.5 µM (SK-MEL-28) of 87%, a growth at 0.05 µM (NCI-H226) of 93% and a growth at 0.5 µM [14] of 86%. It also gave a growth at 0.5 µM (NCI-H460) of 90%, a growth at 0.5 µM (RXF 393) of 68% and a growth at 0.05 µM (OVCAR-8 [15]) of 99%. For the same compound, the growth at 0.05 µM (SK-MEL-2 [16]) was 97%, the growth at 0.05 µM (T47D) was 91% and the growth at 50 µM (TK-10) was 18%. The growth at 0.5 µM (HT-29) was 86%, the growth at 0.05 µM (U-251) was 94% and the growth at 5 µM (SK-MEL-2 [17]) was 8%. For the same compound, the growth at 50 µM (LOX IMVI [18]) was 5%, the growth at 50 µM (ACHN) was 14% and the growth at 0.005 µM (BT-549 [19]) was 99%. The growth at 50 µM [20] was -17%.
